Experimental data published in patent publication US20070010498A1, “Method for reducing blood loss associated with cardio-pulmonary bypass surgery” (priority 2005, published 2007).

Assay: plasma concentrations of COL-3 in humans
Assay type: in vivo
Conditions: dose of about 10 to about 20 mg/day

NC(=O)C1=C(O)C[C@@H]2C[C@@H]3Cc4cccc(O)c4C(=O)C3=C(O)[C@]2(O)C1=O [COL-3, 6-demethyl-6-deoxy-4-de(dimethylamino)tetracycline]
plasma concentrations: about 1.0 μg/ml
